Results as given in the NIST ThermoML archive (doi:10.1021/je060271a).

Details: 303.16 K, Liquid, Vibrating tube method

CCCC(=O)OCC(COC(=O)CCC)(COC(=O)CCC)COC(=O)CCC [pentaerythritol tetrabutyrate]
Details | mass density [kg/m3]
218.9 kPa | 1042.3
232.4 kPa | 1042.3
246.9 kPa | 1042.3
262 kPa | 1042.5
324.9 kPa | 1042.3
472.3 kPa | 1042.4
544.7 kPa | 1042.5
563.5 kPa | 1042.5
587.1 kPa | 1042.5
607.3 kPa | 1042.4
629 kPa | 1042.6
656.4 kPa | 1042.6
678.3 kPa | 1042.6
696.6 kPa | 1042.6
718.1 kPa | 1042.7
737.2 kPa | 1042.6
757 kPa | 1042.6
776.8 kPa | 1042.6
796 kPa | 1042.7
818.2 kPa | 1042.7
836.3 kPa | 1042.7
853.6 kPa | 1042.7
873.1 kPa | 1042.8
890.5 kPa | 1042.7
907.8 kPa | 1042.7
929.5 kPa | 1042.8
947.9 kPa | 1042.7
966.4 kPa | 1042.8
985.3 kPa | 1042.9
1007.9 kPa | 1042.8
1026.6 kPa | 1042.8
1044.5 kPa | 1042.8
1062.2 kPa | 1042.9
1083.2 kPa | 1043
1101 kPa | 1042.8
1119.2 kPa | 1042.9
1141.3 kPa | 1042.9
1160.5 kPa | 1042.9
1180.3 kPa | 1042.9
1203.2 kPa | 1042.8
1223.6 kPa | 1042.8
1243.7 kPa | 1043
1290.1 kPa | 1043
1358.8 kPa | 1043.1
1379.7 kPa | 1043
1401.5 kPa | 1043
1428.1 kPa | 1043.1
1450.3 kPa | 1043.1
1473.3 kPa | 1043.1
1501.7 kPa | 1043.2
1526.2 kPa | 1043.1
1550.9 kPa | 1043.1
1583.5 kPa | 1043.2
1604.5 kPa | 1043.2
1630.2 kPa | 1043.2
1662.3 kPa | 1043.2
1689.4 kPa | 1043.3
1717.5 kPa | 1043.3
1751.5 kPa | 1043.3
1780.2 kPa | 1043.3
1810 kPa | 1043.3
1846.1 kPa | 1043.4
1877 kPa | 1043.3
1908.8 kPa | 1043.5
1942.4 kPa | 1043.5
1983.9 kPa | 1043.5
2011.5 kPa | 1043.6
2053.9 kPa | 1043.4
2086.5 kPa | 1043.6
2109.2 kPa | 1043.5
2134.7 kPa | 1043.5
2155.2 kPa | 1043.4
2176 kPa | 1043.6
2200.7 kPa | 1043.6
2220.8 kPa | 1043.6
2241.1 kPa | 1043.6
2266.1 kPa | 1043.6
2286.5 kPa | 1043.6
2308 kPa | 1043.7
2333 kPa | 1043.7
2354.7 kPa | 1043.7
2376.6 kPa | 1043.7
2398.4 kPa | 1043.7
2422.9 kPa | 1043.8
2443.3 kPa | 1043.9
2464.3 kPa | 1043.6
2488.8 kPa | 1043.8
2509.4 kPa | 1043.8
2530.2 kPa | 1043.8
2554.7 kPa | 1043.7
2576.2 kPa | 1043.9
2597.2 kPa | 1043.9
2618.2 kPa | 1043.9
2643 kPa | 1043.9
2663.8 kPa | 1044
2685.1 kPa | 1043.9
2711.1 kPa | 1044
2732.8 kPa | 1044
2754.8 kPa | 1044
2781 kPa | 1043.9
2802.9 kPa | 1044
2824.7 kPa | 1044
2874.3 kPa | 1044.1
2897.5 kPa | 1044
2943.5 kPa | 1044.1
2971 kPa | 1044.1
2993.1 kPa | 1044.1
3014.9 kPa | 1044.1
3041.8 kPa | 1044.2
3063.6 kPa | 1044.2
3085.8 kPa | 1044.2
3108.7 kPa | 1044.3
3136.3 kPa | 1044.2
3159.3 kPa | 1044.2
3182.9 kPa | 1044.2
3207 kPa | 1044.3
3235.1 kPa | 1044.3
3258.3 kPa | 1044.2
3282.9 kPa | 1044.4
3311.7 kPa | 1044.3
3336.1 kPa | 1044.3
3361.2 kPa | 1044.5
3386.4 kPa | 1044.3
3416 kPa | 1044.5
3440.9 kPa | 1044.4
3466.4 kPa | 1044.4
3492.4 kPa | 1044.4
3523.8 kPa | 1044.5
3549.8 kPa | 1044.5
3576.6 kPa | 1044.5
3603.3 kPa | 1044.5
3635.4 kPa | 1044.6
3661.7 kPa | 1044.6
3688.4 kPa | 1044.7
3710.9 kPa | 1044.6
3733.8 kPa | 1044.6
3756.6 kPa | 1044.6
3784.2 kPa | 1044.7
3807.4 kPa | 1044.6
3831.5 kPa | 1044.7
3857.6 kPa | 1044.7
3881.3 kPa | 1044.7
3909.9 kPa | 1044.8
3931.4 kPa | 1044.7
3952.7 kPa | 1044.7
3974.1 kPa | 1044.8
